# Test results as given in US8497278B2, “Imidazo[1,2-a]pyridine compounds” (priority 2008, dated 2013).
# Test system: central benzodiazepine receptors
# Experiment: Central benzodiazepine receptor binding (test of Speth et al.)
# Details: 1000 nM of the compound
# Procedure: Compounds of the invention were assessed for their binding to the benzodiazepine receptor by the test of Speth et al. [Life Sci. 24, 351 (1979)] for central benzodiazepine receptors and LeFur et al. [Life Sci. 33, 449 (1983)] for peripheral receptors. The compounds were tested first at 1.0E-09, 1.0E-07 and 1.0E-05 M in single determination. […] The specific ligand binding to the receptor is defined as the difference between the total binding and the nonspecific binding determined in the presence of an excess of unlabelled ligand. In each experiment, the respective reference compound was tested concurrently with the test compounds in order to assess the assay suitability. It was tested at several concentrations (for IC50 value determination), and the data were compared with historical values. The assay was rendered valid if suitability criteria were met.
# BZD central binding data for the compounds is provided in Table 3, wherein is provided the percent inhibition of central BZD in the presence of 1000 nM of the compound.
row,Compound,% Inhibition at 1000 nM for CBZD
1,"COC(=O)c1cc2occc2n1Cc1c(-c2ccc(Cl)cc2)nc2ccccn12 [Compound 33, Methyl 4-((2-(4-chlorophenyl)imidazo[1,2-a]pyridin-3-yl)methyl)-4H-furo[3,2-b]pyrrole-5-carboxylate]",++ (percentage of inhibition of central BZD site binding is greater than 80% in the presence of 1000 nM of the compound)
2,"Cc1ccc(-c2nc3ccc(C)cn3c2CNc2ccccn2)cc1 [Compound 140, N-((6-methyl-2-p-tolylH-imidazo[1,2-a]pyridin-3-yl)methyl)pyridin-2-amine]",++ (percentage of inhibition of central BZD site binding is greater than 80% in the presence of 1000 nM of the compound)
3,"COC1=CC(=O)N(Cc2c(-c3ccc(C)cc3)nc3ccc(C)cn23)C1 [Compound 94, 4-methoxy-1-((6-methyl-2-p-tolyl-H-imidazo[1,2-a]pyridin-3-yl)methyl)-1H-pyrrol-2(5H)-one]",++ (percentage of inhibition of central BZD site binding is greater than 80% in the presence of 1000 nM of the compound)
4,"CN(C)CCNc1ccn(Cc2c(-c3ccc(Cl)cc3)nc3ccccn23)c(=O)n1 [Compound 134, 1-((2-(4-chlorophenyl)imidazo[1,2-a]pyridin-3-yl)methyl)-4-(2-(dimethylamino)ethylamino)pyrimidin-2(1H)-one]",++ (percentage of inhibition of central BZD site binding is greater than 80% in the presence of 1000 nM of the compound)
5,"Cc1ccc(-c2nc3ccc(C)cn3c2CNc2ccon2)cc1 [Compound 149, N-((6-methyl-2-p-tolylH-imidazo[1,2-a]pyridin-3-yl)methyl)isoxazole-3-amine]",++ (percentage of inhibition of central BZD site binding is greater than 80% in the presence of 1000 nM of the compound)
6,"COC(=O)c1ncn(Cc2c(-c3ccccc3)nc3ccc(Cl)cn23)n1 [Compound 45, 1-(6-Chloro-2-phenyl-imidazo[1,2-a]pyridin-3-ylmethyl)-1H-[1,2,4]triazole-3-carboxylic acid methyl ester]",+ (percentage of inhibition of central BZD site binding is greater than 50% but less than 80% in the presence of 1000 nM of the compound)
7,"CNCCOc1nccc(NCc2c(-c3ccc(Cl)cc3)nc3ccccn23)n1 [Compound 185, N-((2-(4-chlorophenyl)imidazo[1,2-a]pyridin-3-yl)methyl)-2-(2-(methylamino)ethoxy)pyrimidin-4-amine]",++ (percentage of inhibition of central BZD site binding is greater than 80% in the presence of 1000 nM of the compound)
8,"CNc1nnc(Cc2c(-c3ccc(Cl)cc3)nc3ccccn23)s1 [Compound 235, 5-((2-(4-chlorophenyl)imidazo[1,2-a]pyridin-3-yl)methyl)-N-methyl-1,3,4-thiadiazol-2-amine]",+ (percentage of inhibition of central BZD site binding is greater than 50% but less than 80% in the presence of 1000 nM of the compound)
9,"Cc1ccc(-c2nc3ccc(C)cn3c2CNc2ncncn2)cc1 [Compound 146, (6-Methyl-2-p-tolyl-imidazo[1,2-a]pyridin-3-ylmethyl)-[1,3,5]triazin-2-yl-amine]",++ (percentage of inhibition of central BZD site binding is greater than 80% in the presence of 1000 nM of the compound)
10,"Cc1ccc(-c2nc3ccc(C)cn3c2CSc2ccccc2)cc1 [Compound 163, 6-Methyl-3-phenylsulfanylmethyl-2-p-tolyl-imidazo[1,2-a]pyridine]",++ (percentage of inhibition of central BZD site binding is greater than 80% in the presence of 1000 nM of the compound)
11,"CC(C)c1nnc(Cc2c(-c3ccc(Cl)cc3)nc3ccccn23)[nH]1 [Compound 231, 2-(4-chlorophenyl)-3-((5-isopropyl-4H-1,2,4-triazol-3-yl)methyl)imidazo[1,2-a]pyridine]",++ (percentage of inhibition of central BZD site binding is greater than 80% in the presence of 1000 nM of the compound)
12,"Cc1ccc(-c2nc3ccc(C)cn3c2CNc2cnccn2)cc1 [Compound 144, N-((6-methyl-2-p-tolylH-imidazo[1,2-a]pyridin-3-yl)methyl)pyrazin-2-amine]",++ (percentage of inhibition of central BZD site binding is greater than 80% in the presence of 1000 nM of the compound)
13,"Clc1ccc(-c2nc3ccccn3c2Cn2cnnn2)cc1 [Compound 41, 3-((1H-tetrazol-1-yl)methyl)-2-(4-chlorophenyl)imidazo[1,2-a]pyridine]",++ (percentage of inhibition of central BZD site binding is greater than 80% in the presence of 1000 nM of the compound)
14,"O=C1C=C(N2CCC(O)CC2)CN1Cc1c(-c2ccc(Cl)cc2)nc2ccccn12 [Compound 241, 1-((2-(4-chlorophenyl)imidazo[1,2-a]pyridin-3-yl)methyl)-4-(4-hydroxypiperidin-1-yl)-1H-pyrrol-2(5H)-one]",++ (percentage of inhibition of central BZD site binding is greater than 80% in the presence of 1000 nM of the compound)
15,"CCNc1ccn(Cc2c(-c3ccc(Cl)cc3)nc3ccccn23)c(=O)n1 [Compound 132, 1-((2-(4-chlorophenyl)imidazo[1,2-a]pyridin-3-yl)methyl)-4-(ethylamino)pyrimidin-2(1H)-one]",++ (percentage of inhibition of central BZD site binding is greater than 80% in the presence of 1000 nM of the compound)
16,"COC(=O)c1ncn(Cc2c(-c3ccc(C)cc3)nc3ccc(C)cn23)n1 [Compound 11, 1-(6-Methyl-2-p-tolyl-imidazo[1,2-a]pyridin-3-ylmethyl)-1H-[1,2,4]triazole-3-carboxylic acid methyl ester]",++ (percentage of inhibition of central BZD site binding is greater than 80% in the presence of 1000 nM of the compound)
17,"NC(=O)c1nccn1Cc1c(-c2ccc(Cl)cc2)nc2cccnn12 [Compound 87, 1-((2-(4-chlorophenyl)imidazo[1,2-b]pyridazin-3-yl)methyl)-1H-imidazole-2-carboxamide]",+ (percentage of inhibition of central BZD site binding is greater than 50% but less than 80% in the presence of 1000 nM of the compound)
18,"c1ccc(-c2nc3ccccn3c2Cn2nccn2)cc1 [Compound 51, 3-((2H-1,2,3-triazol-2-yl)methyl)-2-phenylH-imidazo[1,2-a]pyridine]",++ (percentage of inhibition of central BZD site binding is greater than 80% in the presence of 1000 nM of the compound)
19,"Cc1ccc(-c2nc3ccc(C)cn3c2Cn2ccnc2C(C)C)cc1 [Compound 5, 3-((2-Isopropyl-1H-imidazol-1-yl)methyl)-6-methyl-2-p-tolylH-imidazo[1,2-a]pyridine]",++ (percentage of inhibition of central BZD site binding is greater than 80% in the presence of 1000 nM of the compound)
20,"Fc1ccc(-c2nc3ccccn3c2Cn2cncn2)cc1 [Compound 54, 3-((1H-1,2,4-triazol-1-yl)methyl)-2-(4-fluorophenyl)H-imidazo[1,2-a]pyridine]",++ (percentage of inhibition of central BZD site binding is greater than 80% in the presence of 1000 nM of the compound)
21,"O=C1CCCN1Cc1c(-c2ccc(Cl)cc2)nc2ccc(Cl)cn12 [Compound 112, 1-((6-chloro-2-(4-chlorophenyl)H-imidazo[1,2-a]pyridin-3-yl)methyl)pyrrolidin-2-one]",++ (percentage of inhibition of central BZD site binding is greater than 80% in the presence of 1000 nM of the compound)
